Test results taken from ChEMBL document CHEMBL4130634, “Discovery of Reversible DNA Methyltransferase and Lysine Methyltransferase G9a Inhibitors with Antitumoral in Vivo Efficacy” (J Med Chem, 2018).

Columns and labels:
[1] = AUC (0 to 24 hrs) in RARG2-/-gammac-/- Balb/c mouse at 5 mg/kg, ip administered as single dose by LC-MS/MS analysis; assay type: ADME, organism-based; set-up: time < 24 hr, dose 5 mg/kg, route intraperitoneal; details: in vivo
[2] = molecular target: T1, DNA (cytosine-5)-methyltransferase 1 (Homo sapiens, UniProt P26358); test: Inhibition of human DNMT1 using polydeoxyinosine polydeoxycytosine DNA as substrate after 15 mins in presence of SAM by TR-FRET assay
T1 sequence (P26358 whole entry): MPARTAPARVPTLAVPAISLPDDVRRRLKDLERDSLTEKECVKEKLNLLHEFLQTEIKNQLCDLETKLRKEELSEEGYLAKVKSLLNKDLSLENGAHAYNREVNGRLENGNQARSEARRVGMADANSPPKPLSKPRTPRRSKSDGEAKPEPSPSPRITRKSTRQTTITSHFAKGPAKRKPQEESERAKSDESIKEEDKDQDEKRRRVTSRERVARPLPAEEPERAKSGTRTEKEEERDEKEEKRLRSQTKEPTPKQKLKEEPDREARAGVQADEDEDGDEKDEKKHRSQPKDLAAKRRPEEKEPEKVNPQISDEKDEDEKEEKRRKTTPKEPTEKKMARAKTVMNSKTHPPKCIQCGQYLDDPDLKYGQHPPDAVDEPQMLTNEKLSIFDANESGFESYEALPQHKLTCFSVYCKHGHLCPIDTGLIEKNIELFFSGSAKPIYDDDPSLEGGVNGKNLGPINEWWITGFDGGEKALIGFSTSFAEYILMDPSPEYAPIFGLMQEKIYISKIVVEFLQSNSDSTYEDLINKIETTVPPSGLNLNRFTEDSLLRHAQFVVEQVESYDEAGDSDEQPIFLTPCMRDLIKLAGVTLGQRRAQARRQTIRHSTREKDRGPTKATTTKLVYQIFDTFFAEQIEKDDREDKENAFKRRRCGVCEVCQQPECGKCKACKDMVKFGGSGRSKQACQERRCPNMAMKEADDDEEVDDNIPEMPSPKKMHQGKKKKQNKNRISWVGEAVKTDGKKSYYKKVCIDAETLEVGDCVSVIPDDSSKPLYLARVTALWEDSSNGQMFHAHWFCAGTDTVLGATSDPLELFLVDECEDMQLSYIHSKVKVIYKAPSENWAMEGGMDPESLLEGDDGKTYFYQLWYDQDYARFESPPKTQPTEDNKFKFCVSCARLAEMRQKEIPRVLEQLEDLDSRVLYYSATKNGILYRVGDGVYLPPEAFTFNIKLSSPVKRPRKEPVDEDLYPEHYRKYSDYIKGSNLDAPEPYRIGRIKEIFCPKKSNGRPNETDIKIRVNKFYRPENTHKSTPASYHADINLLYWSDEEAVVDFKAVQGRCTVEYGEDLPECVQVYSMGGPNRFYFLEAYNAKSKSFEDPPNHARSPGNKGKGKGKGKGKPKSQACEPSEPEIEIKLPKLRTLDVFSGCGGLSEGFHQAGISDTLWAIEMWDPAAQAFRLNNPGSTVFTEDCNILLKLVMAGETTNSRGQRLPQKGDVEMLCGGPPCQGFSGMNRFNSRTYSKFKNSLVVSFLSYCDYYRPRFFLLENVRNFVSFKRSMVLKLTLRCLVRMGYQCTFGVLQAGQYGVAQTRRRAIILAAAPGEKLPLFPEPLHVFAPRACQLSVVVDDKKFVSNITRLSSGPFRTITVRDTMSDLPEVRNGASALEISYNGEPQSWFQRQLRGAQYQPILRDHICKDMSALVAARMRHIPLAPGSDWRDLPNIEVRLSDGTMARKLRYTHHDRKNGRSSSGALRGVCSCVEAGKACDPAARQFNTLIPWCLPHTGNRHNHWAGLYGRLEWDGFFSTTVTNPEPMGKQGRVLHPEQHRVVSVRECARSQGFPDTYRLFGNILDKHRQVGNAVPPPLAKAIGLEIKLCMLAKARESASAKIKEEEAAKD

THLE-2 = test: Growth inhibition of human THLE2 cells after 72 hrs by MTS assay; assay type: cell-based; details: thle-2, 72 h
[3] = molecular target: T2, Histone-lysine N-methyltransferase EHMT2 (Homo sapiens, UniProt Q96KQ7); test: Non-competitive inhibition of human G9a using biotinylated-H3K9 peptide as substrate after 1 hr in presence of 2 to 640 uM SAM by TR-FRET assay
T2 sequence (Q96KQ7 whole entry): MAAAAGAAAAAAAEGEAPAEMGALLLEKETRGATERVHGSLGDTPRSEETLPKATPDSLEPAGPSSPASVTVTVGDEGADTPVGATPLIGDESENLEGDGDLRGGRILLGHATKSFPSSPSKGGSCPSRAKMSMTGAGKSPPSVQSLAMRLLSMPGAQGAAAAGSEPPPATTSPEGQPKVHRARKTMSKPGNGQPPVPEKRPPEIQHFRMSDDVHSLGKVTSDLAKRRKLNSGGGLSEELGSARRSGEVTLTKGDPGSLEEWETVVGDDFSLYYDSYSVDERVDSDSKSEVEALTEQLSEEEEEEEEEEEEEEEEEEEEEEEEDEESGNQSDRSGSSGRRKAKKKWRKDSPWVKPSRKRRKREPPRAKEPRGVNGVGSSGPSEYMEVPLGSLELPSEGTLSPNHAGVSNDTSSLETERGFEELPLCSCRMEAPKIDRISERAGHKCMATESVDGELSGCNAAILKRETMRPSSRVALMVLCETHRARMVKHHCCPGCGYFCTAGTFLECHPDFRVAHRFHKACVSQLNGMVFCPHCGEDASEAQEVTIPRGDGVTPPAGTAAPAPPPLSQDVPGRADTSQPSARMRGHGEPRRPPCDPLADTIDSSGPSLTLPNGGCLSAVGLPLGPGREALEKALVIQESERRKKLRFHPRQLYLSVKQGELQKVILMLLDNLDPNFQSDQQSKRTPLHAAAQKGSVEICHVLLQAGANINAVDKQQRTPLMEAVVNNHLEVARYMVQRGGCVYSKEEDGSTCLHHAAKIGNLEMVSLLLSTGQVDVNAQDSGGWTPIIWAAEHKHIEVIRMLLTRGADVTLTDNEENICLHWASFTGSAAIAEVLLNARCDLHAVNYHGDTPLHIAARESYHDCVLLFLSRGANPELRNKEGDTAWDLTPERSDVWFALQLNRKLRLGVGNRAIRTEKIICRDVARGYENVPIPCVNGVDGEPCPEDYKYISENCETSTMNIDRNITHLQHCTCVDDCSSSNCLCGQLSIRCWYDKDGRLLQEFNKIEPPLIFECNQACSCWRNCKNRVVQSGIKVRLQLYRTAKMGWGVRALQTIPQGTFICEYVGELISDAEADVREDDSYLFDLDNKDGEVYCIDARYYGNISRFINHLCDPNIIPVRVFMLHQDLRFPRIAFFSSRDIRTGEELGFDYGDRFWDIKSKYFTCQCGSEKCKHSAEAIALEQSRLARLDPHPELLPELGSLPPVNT

[4] = molecular target: T1, DNA (cytosine-5)-methyltransferase 1; test: Competitive inhibition of human DNMT1 using 1 to 100 ug/ml polydeoxyinosine polydeoxycytosine DNA as substrate after 15 mins in presence of SAM by TR-FRET assay
OCI-Ly10 = test: Growth inhibition of human OCI-LY10 cells at 1 uM after 48 hrs by MTS assay relative to control; assay type: functional; details: OCI-Ly10, 48 h, read-out: GI
MV4-11 [5] = test: Growth inhibition of human MV4-11 cells after 48 hrs by MTS assay; assay type: functional; details: MV4-11, 48 h
[6] = Growth inhibition of human CEMO1 cells after 48 hrs by MTS assay; assay type: functional
[7] = molecular target: T2, Histone-lysine N-methyltransferase EHMT2; test: Competitive inhibition of human G9a using 40 to 2560 nM biotinylated-H3K9 peptide as substrate after 1 hr in presence of SAM by TR-FRET assay
[8] = molecular target: T2, Histone-lysine N-methyltransferase EHMT2; test: Inhibition of human G9a using biotinylated-H3K9 peptide as substrate after 1 hr in presence of SAM by TR-FRET assay
[9] = molecular target: T1, DNA (cytosine-5)-methyltransferase 1; test: Non-competitive inhibition of human DNMT1 using polydeoxyinosine polydeoxycytosine DNA as substrate after 15 mins in presence of 1 to 20 uM SAM by TR-FRET assay
OCI-Ly3 = test: Growth inhibition of human OCI-LY3 cells at 1 uM after 48 hrs by MTS assay relative to control; assay type: functional; details: OCI-Ly3, 48 h, read-out: GI
[10] = molecular target: T3, Histone-lysine N-methyltransferase EHMT1 (Homo sapiens, UniProt Q9H9B1); test: Inhibition of recombinant human GLP using histone H3 peptide as substrate after 120 mins in presence of [3H]SAM by radiometric assay
T3 sequence (Q9H9B1 whole entry): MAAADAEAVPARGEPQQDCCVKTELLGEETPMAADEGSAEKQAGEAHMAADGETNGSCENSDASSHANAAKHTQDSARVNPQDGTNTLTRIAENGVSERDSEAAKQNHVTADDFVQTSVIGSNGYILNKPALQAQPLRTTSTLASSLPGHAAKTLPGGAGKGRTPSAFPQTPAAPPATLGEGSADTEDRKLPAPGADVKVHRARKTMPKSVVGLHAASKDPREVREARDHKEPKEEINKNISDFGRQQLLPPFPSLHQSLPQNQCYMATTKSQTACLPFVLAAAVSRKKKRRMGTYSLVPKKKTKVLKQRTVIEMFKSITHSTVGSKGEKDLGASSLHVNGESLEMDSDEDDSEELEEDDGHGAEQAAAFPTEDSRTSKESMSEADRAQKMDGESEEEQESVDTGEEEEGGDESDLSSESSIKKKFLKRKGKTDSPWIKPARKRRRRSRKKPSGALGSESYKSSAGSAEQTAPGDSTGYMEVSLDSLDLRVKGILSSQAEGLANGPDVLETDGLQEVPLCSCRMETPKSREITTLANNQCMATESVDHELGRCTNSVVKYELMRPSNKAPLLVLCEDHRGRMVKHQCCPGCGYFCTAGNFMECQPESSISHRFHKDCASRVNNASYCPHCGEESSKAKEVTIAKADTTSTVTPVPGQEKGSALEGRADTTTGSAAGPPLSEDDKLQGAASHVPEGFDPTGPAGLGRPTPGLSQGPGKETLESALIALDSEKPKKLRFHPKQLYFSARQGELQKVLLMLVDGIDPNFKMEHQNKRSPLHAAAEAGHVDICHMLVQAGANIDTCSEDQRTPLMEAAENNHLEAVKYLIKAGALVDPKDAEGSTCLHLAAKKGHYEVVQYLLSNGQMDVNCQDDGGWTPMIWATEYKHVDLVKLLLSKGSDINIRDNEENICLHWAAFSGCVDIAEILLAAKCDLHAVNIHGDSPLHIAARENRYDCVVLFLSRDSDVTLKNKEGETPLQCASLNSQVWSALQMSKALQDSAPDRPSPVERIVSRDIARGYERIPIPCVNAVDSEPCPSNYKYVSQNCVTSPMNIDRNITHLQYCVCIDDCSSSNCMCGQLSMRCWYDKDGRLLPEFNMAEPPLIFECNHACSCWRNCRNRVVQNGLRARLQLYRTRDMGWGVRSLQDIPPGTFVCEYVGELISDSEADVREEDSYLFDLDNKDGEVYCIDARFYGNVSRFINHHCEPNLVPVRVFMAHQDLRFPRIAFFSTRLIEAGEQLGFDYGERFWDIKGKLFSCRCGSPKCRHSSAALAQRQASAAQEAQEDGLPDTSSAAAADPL

[11] = AUC (0 to 24 hrs) in RARG2-/-gammac-/- Balb/c mouse at […], iv administered as single dose by LC-MS/MS analysis; assay type: ADME, organism-based; set-up: time < 24 hr, dose 2.5 mg/kg, route intravenous; details: in vivo
[12] = Metabolic stability in mouse liver microsomes assessed as parent compound remaining at 1 uM preincubated for 10 mins followed by NADP addition after 20 mins by LC-MS/MS analysis; assay type: ADME, microsome; details: read-out: Stability
MV4-11 [13] = test: Antitumor activity against human MV4-11 cells xenografted in RARG2-/-gammac-/- Balb/c mouse assessed as tumor growth inhibition at […], iv for 21 consecutive days starting from day 1 post tumor inoculation measured on day 23 relative to control; assay type: functional; details: MV4-11, iv, read-out: TGI
[14] = Growth inhibition of human LAL-CUN-2 cells after 48 hrs by MTS assay; assay type: functional
[15] = Metabolic stability in human liver microsomes assessed as parent compound remaining at 1 uM preincubated for 10 mins followed by NADP addition after 20 mins by LC-MS/MS analysis; assay type: ADME, microsome; details: liver microsomes, read-out: Stability
[16] = Half life in mouse liver microsomes at 1 uM preincubated for 10 mins followed by NADP addition after 20 mins by LC-MS/MS analysis; assay type: ADME, microsome
[17] = Half life in human liver microsomes at 1 uM preincubated for 10 mins followed by NADP addition after 20 mins by LC-MS/MS analysis; assay type: ADME, microsome; details: liver microsomes

Compound | AUC(0-t) at 24 h [1] | IC50 [2] | LC50 (THLE-2) | IC50 [3] | IC50 [4] | inhibition of growth at 1 µM (OCI-Ly10) | GI50 (MV4-11 [5]) | GI50 [6] | IC50 [7] | IC50 [8] | IC50 [9] | inhibition of growth at 1 µM (OCI-Ly3) | IC50 [10] | AUC(0-t) at 24 h [11] | remaining at 20 min, 1 µM [12] | inhibition in vivo at […] (MV4-11 [13]) | GI50 [14] | remaining at 20 min, 1 µM [15] | half-life at 1 µM [16] | half-life at 1 µM [17]
COc1cc2c(NC3CCN(C(C)C)CC3)nc(N3CCC(F)(F)CC3)nc2cc1OCCCN1CCCC1 | 2.31 µM·h | > 50000 nM |  |  |  |  |  |  |  |  |  |  |  |  |  |  |  |  |  | 
COc1cc2c(NC3CCN(C(C)C)CC3)cc(C3CCCCC3)nc2cc1OCCCN1CCCC1 |  | 619 nM | 83800 nM | 0.5 to 2 nM | 1400 to 10000 nM | 0% | > 10000 nM | > 10000 nM | 0.7 to 29 nM | 0.7 nM | 1400 to 2400 nM | 0% | 180 nM |  |  |  |  |  |  | 
COc1cc2c(NC3CCN(C)CC3)cc(-c3ccc(C)o3)nc2cc1OCCCN1CCCC1 |  |  | 1780 nM |  |  |  | 269 nM |  |  |  |  |  |  | 1.49 µM·h | 70.9% | 70% | 664 nM | 99.7% | 36 min | > 144 min
